Data published in patent publication US9187467B2, “2-phenyl benzothiazole linked imidazole compounds as potential anticancer agents and process for the preparation thereof” (Council of Scientific and Industrial Research, priority 2012, dated 2015).

Assays:
SR = experiment: SRB anticancer assay, leukemia; format: cell-based, human; details: Homo sapiens, 48 h
K562 (Leukemia) cells = experiment: Cell cycle distribution by flow cytometry; format: cell-based
Method: (§1) In order to investigate the mechanism underlying the anti-proliferative effect of the compounds the cell cycle distribution was analyzed in K562 (Leukemia) and MCF-7 (Breast carcinoma) cell lines by flow cytometry. Compounds CA-4, 21a, 21d, 4c, 6d, 6e, 6f, 7d, 7h and 7j have shown 1.72%, 14%, 12%, 14%, 12%, 14%, 14%, 16%, 16% &12% in K562 cells and 49.63%, 21%, 20%, 18%, 21%, 21%, 21%, 24%, 23% and 23% in MCF-7 cell line respectively. […] Thus compound 7d was considered for further studies (FIG. 1).

IGROV1 = experiment: SRB anticancer assay, ovarian; format: cell-based, human; details: Homo sapiens, IGROV-1; IGROV1, 48 h
[1] = system: Ovarian cancer cell lines; experiment: SRB anticancer assay, panel result; format: cell-based, human
Outline: (§2)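 Cells from a sixty-line human panel were treated continuously for 48 h at no fewer than five concentrations separated by 10-fold dilutions. Growth was then estimated with an SRB protein assay, and dose–response curves were built per cell line.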

Colon cancer cell lines = experiment: SRB anticancer assay, panel result; format: cell-based, human
Outline: as §2

[2] = system: Melanoma cancer cell lines; experiment: SRB anticancer assay, panel result; format: cell-based, human
Outline: as §2

Renal cancer cell lines = experiment: SRB anticancer assay, panel result; format: cell-based, human
Outline: as §2

[3] = system: Prostate cancer cell lines; experiment: SRB anticancer assay, panel result; format: cell-based, human
Outline: as §2

[4] = system: Non-small cell lung cancer cell lines; experiment: SRB anticancer assay, panel result; format: cell-based, human
Outline: as §2

Breast cancer cell lines = experiment: SRB anticancer assay, panel result; format: cell-based, human
Outline: as §2

[5] = system: MCF-7 (Breast carcinoma) cells; experiment: Cell cycle distribution by flow cytometry (FACS); format: cell-based; details: MCF-7 cells, 2 μM, 24h
Method: FIG. 1 represents FACS analysis of cell cycle distribution of MCF-7 cells after treatment with compounds CA-4, 21a, 21d, 4c, 6d, 6e, 6f, 7d, 7h and 7j at 2 μM concentration for 24h and control cells are the cells treated with DMSO (0.25%).
as §1

NCI-H226 = experiment: SRB anticancer assay, non-small lung; format: cell-based, human; details: Homo sapiens, NCI-H226, 48 h
NCI-H23 = experiment: SRB anticancer assay, non-small lung; format: cell-based, human
SN12C = experiment: SRB anticancer assay, renal; format: cell-based, human; design: Log10GI50: unit not given here
OVCAR-3 = experiment: SRB anticancer assay, ovarian; format: cell-based, human; design: Log10GI50: unit not given here
NCI/ADR-RES = experiment: SRB anticancer assay, ovarian; format: cell-based, human; design: Log10GI50: unit not given here; details: for Log10GI50: present compounds
T-47D = experiment: SRB anticancer assay, breast; format: cell-based; details: Homo sapiens, T47D, 48 h
HCT-116 = experiment: SRB anticancer assay, colon; format: cell-based, human; details: Homo sapiens, HCT-116, 48 h
HL-60 (TB) = experiment: SRB anticancer assay, leukemia; format: cell-based, human; design: Log10GI50: unit not given here
U251 = experiment: SRB anticancer assay, CNS; format: cell-based, human; design: Log10GI50: unit not given here
OVCAR-4 = experiment: SRB anticancer assay, ovarian; format: cell-based, human; details: Homo sapiens, OVCAR-4, 48 h
A498 = experiment: SRB anticancer assay, renal; format: cell-based, human; design: Log10GI50: unit not given here
SNB-75 = experiment: SRB anticancer assay, CNS; format: cell-based, human; design: Log10GI50: unit not given here
UO-31 = experiment: SRB anticancer assay, renal; format: cell-based, human; design: Log10GI50: unit not given here
NCI-H460 = experiment: SRB anticancer assay, non-small lung; format: cell-based, human; details: Homo sapiens, NCI-H460, 48 h

Compound: COc1ccc(-c2cncn2-c2ccc(-c3nc4cc(OC)c(OC)c(OC)c4s3)cc2)cc1N [Compound 7j, 2-Methoxy-5-(1-(4-(5,6,7-trimethoxybenzo[d]thiazol-2-yl)phenyl)-1H-imidazol-5-yl)benzeneamine]
- GI50 (SR): 3.43 µM
- cells in G2/M phase (K562 (Leukemia) cells): 12%
- GI50 (IGROV1): 4.9 µM
- LC50 ([1]; Homo sapiens, Ovarian panel, 50% net cell death, read-out: mean graph midpoint value (MG_MID) of Log10 LC50 (converted)): > 100 µM
- GI50 ([1]; Homo sapiens, seven ovarian cancer cell lines, exposure at least 48 h, read-out: GI50, range over the panel): 3.12 to 6.29 µM
- mean graph midpoint value (MG_MID) of Log10 GI50 ([1]; Ovarian panel): −4.93 mol/L
- mean graph midpoint value (MG_MID) of log10 TGI ([1]; Ovarian panel, total inhibition of net cell growth): >−4.0
- mean graph midpoint value (MG_MID) of Log10 GI50 (Colon cancer cell lines; Colon panel): −5.40 log10(mol/L)
- mean graph midpoint value (MG_MID) of log10 TGI (Colon cancer cell lines; Colon panel, total inhibition of net cell growth): −4.11
- LC50 (Colon cancer cell lines; Homo sapiens, Colon panel, 50% net cell death, read-out: mean graph midpoint value (MG_MID) of Log10 LC50 (converted)): > 100 µM
- GI50 (Colon cancer cell lines; Homo sapiens, seven colon cancer cell lines, exposure at least 48 h, read-out: GI50, range over the panel): 2.94 to 6.21 µM
- LC50 ([2]; Homo sapiens, Melanoma panel, 50% net cell death, read-out: mean graph midpoint value (MG_MID) of Log10 LC50 (converted)): 81.3 µM
- GI50 ([2]; Homo sapiens, nine melanoma cancer cell lines, exposure at least 48 h, read-out: GI50, range over the panel): 1.73 to 13.7 µM
- mean graph midpoint value (MG_MID) of Log10 GI50 ([2]; Melanoma panel): −5.17 log10(mol/L)
- mean graph midpoint value (MG_MID) of log10 TGI ([2]; Melanoma panel, total inhibition of net cell growth): −4.26
- CC50 (Renal cancer cell lines; Homo sapiens, Renal panel, 50% net cell death, read-out: mean graph midpoint value (MG_MID) of Log10 LC50 (converted)): > 100 µM
- GI50 (Renal cancer cell lines; Homo sapiens, eight renal cancer cell lines, exposure at least 48 h, read-out: GI50, range over the panel): 1.99 to 9.44 µM
- mean graph midpoint value (MG_MID) of Log10 GI50 (Renal cancer cell lines; Renal panel): −5.31 log10(mol/L)
- mean graph midpoint value (MG_MID) of log10 TGI (Renal cancer cell lines; Renal panel, total inhibition of net cell growth): −4.14
- LC50 ([3]; Homo sapiens, Prostate panel, 50% net cell death, read-out: mean graph midpoint value (MG_MID) of Log10 LC50 (converted)): > 100 µM
- GI50 ([3]; Homo sapiens, two prostate cancer cell lines (PC-3, DU-145), exposure at least 48 h, read-out: GI50, range over the panel): 2.59 to 6.38 µM
- mean graph midpoint value (MG_MID) of Log10 GI50 ([3]; Prostate panel): −5.39 mol/L
- mean graph midpoint value (MG_MID) of log10 TGI ([3]; Prostate panel, total inhibition of net cell growth): >−4.0
- LC50 ([4]; Homo sapiens, Non-small cell lung panel, 50% net cell death, read-out: mean graph midpoint value (MG_MID) of Log10 LC50 (converted)): > 100 µM
- GI50 ([4]; Homo sapiens, nine Non-small cell lung cancer cell lines, exposure at least 48 h, read-out: GI50, range over the panel): 3.37 to 25.7 µM
- mean graph midpoint value (MG_MID) of Log10 GI50 ([4]; Non-small cell lung panel): −5.18 log10(M)
- mean graph midpoint value (MG_MID) of log10 TGI ([4]; Non-small cell lung panel, total inhibition of net cell growth): −4.11
- mean graph midpoint value (MG_MID) of Log10 GI50 (Breast cancer cell lines; Breast panel): −4.96 mol/L
- mean graph midpoint value (MG_MID) of log10 TGI (Breast cancer cell lines; Breast panel, total inhibition of net cell growth): >−4.0
- CC50 (Breast cancer cell lines; Homo sapiens, Breast panel, 50% net cell death, read-out: mean graph midpoint value (MG_MID) of Log10 LC50 (converted)): > 100 µM
- GI50 (Breast cancer cell lines; Homo sapiens, six breast cancer cell lines, exposure at least 48 h, read-out: GI50, range over the panel): 3.02 to 28.3 µM
- cells in G2/M phase [5]: 23%
- GI50 (NCI-H226): 6.7 µM
- GI50 (NCI-H23; Homo sapiens, NCI-H23, 48 h): 4.76 µM
- Log10GI50 (NCI-H23; NCI-H23, present compounds): −5.32 log10(M)
- GI50 (SN12C; Homo sapiens, 48 h): 9.44 µM
- Log10GI50 (SN12C; present compounds): −5.03
- GI50 (OVCAR-3; Homo sapiens, OVCAR-3, 48 h): 5.18 µM
- Log10GI50 (OVCAR-3; OVCAR-3, present compounds): −5.29
- GI50 (NCI/ADR-RES; Homo sapiens, NCI/ADR-RES, 48 h): 3.12 µM
- Log10GI50 (NCI/ADR-RES; NCI/ADR-RES (row head NCI/ADR-)): −5.51
- Log10GI50 (NCI/ADR-RES; listed as head printed RES (second line of NCI/ADR-RES)): >−4.0
- GI50 (T-47D): 8.6 µM
- GI50 (HCT-116): 3.78 µM
- Log10GI50 (HL-60 (TB); HL-60(TB), present compounds): −5.66
- GI50 (HL-60 (TB); Homo sapiens, HL-60, 48 h): 2.2 µM
- GI50 (U251; Homo sapiens, U-251, U251, 48 h): 6 µM
- Log10GI50 (U251; U251, present compounds): −5.22
- GI50 (OVCAR-4): 6.29 µM
- Log10GI50 (A498; A498, present compounds): −5.32
- GI50 (A498; Homo sapiens, A498, 48 h): 4.83 µM
- GI50 (SNB-75; Homo sapiens, SNB-75, 48 h): 52.3 µM
- Log10GI50 (SNB-75; SNB-75, present compounds): −4.28
- GI50 (UO-31; Homo sapiens, UO-31, 48 h): 1.99 µM
- Log10GI50 (UO-31; UO-31, present compounds): −5.70
- GI50 (NCI-H460): 4.69 µM
